The text below walks through data of article PMC8942544, “Design and synthesis of benzodiazepines as brain penetrating PARP-1 inhibitors” (Journal of Enzyme Inhibition and Medicinal Chemistry, 2022).

Like-named read-outs stand apart in the source and are kept apart here. A value given as a limit tells only on which side of the number the result lay.

One data set concerns the target T1, PARP-1 (Homo sapiens, UniProt P09874).
T1 construct: purchased BPS Bioscience 80580
The data set is described as follows: PARP-1 enzyme inhibition assay (BPS Bioscience PARP Colorimetric Assay Kit). In kind it is biochemical. As for the experimental part:
All target compounds were evaluated for PARP-1 enzyme inhibition activity at the concentration of 50 nM determined by previous pre-experiments.
The ability of the compounds to inhibit PARP-1 enzyme activity was assessed using BPS Bioscience's PARP Colorimetric Assay Kit (BPS Bioscience, Catalog # 80580). PARP-1 is known to catalyse the NAD-dependent addition of poly(ADP-ribose) to histones. The PARP-1 assay kit comes in a convenient 96-well format, with purified PARP-1 enzyme, histone mixture, activated DNA, and PARP-1 assay buffer. The key to the PARP-1 Colorimetric Activity Assay is the biotinylated substrate. With this kit, only three simple steps are required for PARP-1 reactions. First, histone proteins are coated on a 96-well plate. Next, the PARP-1 biotinylated substrate is incubated with an assay buffer that contains the PARP-1 enzyme. Finally, the plate is treated with streptavidin-HRP followed by the addition of the colorimetric HRP substrate to produce colour that can then be measured using a UV/Vis spectrophotometer microplate reader. IC50 values were calculated using GraphPad Prism5 software.

The target in the next data set is PARP-2 (Homo sapiens, UniProt Q9UGN5). The data set is described as follows: PARP-2 enzyme inhibition (IC50). In kind it is biochemical. From the text: PARP-2 is the closest homolog of PARP-1, which also resides in the nucleus and functions similarly to PARP-1.
Data set [1] relates to MX-1 (BRCA1 mutant tumour cells). The data set is described as follows: MTT antiproliferation assay, MX-1 cells. In kind it is cell-based. The note with it: Homo sapiens, MX1, breast cancer cell line, 48 h. As for the experimental part: (§1) Due to their acceptable inhibition rates (more than 50%) at the concentration of 50 nM, compounds H34, H42, H48, H50, and H52 were selected to evaluate the proliferation inhibition activity on several cancer cells, including BRCA1 mutant tumour cells (MX-1) and BRCA1 wild type tumour cells (MCF7 and A549).
(§2) The MTT assay was performed to detect the sensitivity of cells to anticancer drugs in vitro. The human A549, MCF7, and U87 tumour cells, as well as human BRCA mutant tumour cells (MX-1), were tested in this study. The cell culture was carried out in accordance with routine operations or instructions. Briefly, 5,000 cells were seeded in each well of a 96-well plate. After cell attachment to the bottom of the well, different concentrations of tested compounds were added into designated wells. After 48 h of incubation, 20 µL of MTT solution (5 mg/mL) were added to each well for cell staining. After 4 h, the media were removed and 150 µL of DMSO were added to each well. Finally, the absorbance was determined at 570 nm using a multifunctional microplate reader (TECAN).
In general terms: Formazan colour is commonly taken as a measure of viable cells.

The next data set has as its system MCF7 cells. The data set is described as follows: MTT antiproliferation assay, MCF7 cells. The data set is classed as cell-based. To be noted: Homo sapiens, breast cancer cell line, 48 h. As for the experimental part:
as §1, §2

Another data set relates to A549 cells. The data set is described as follows: MTT antiproliferation assay, A549 cells. The data set is classed as cell-based. The note with it: Homo sapiens, lung cancer cell line, 48 h. As for the experimental part:
as §1, §2

A further data set concerns glioblastoma (U87) cells. Description: Antiproliferation in combination with TMZ, U87 cells. In kind it is cell-based, human. The note with it: combination with Temozolomide. As for the experimental part:
as §2

Data set [2] is described as follows: Brain/plasma pharmacokinetic study in vivo. To be noted: ICR mice. As for the experimental part:
Further, the brain permeability of representative compounds was evaluated in ICR mice. After tail vein injection of a 1.5 mg/kg dose, the concentrations of the compounds in the brain and plasma were measured after 5 min and 60 min of administration, and the brain/plasma (B/P) ratio was calculated. […] On the contrary, compounds H42 and H52 performed high B/P ratios, which were consistent with our initial expectations. Among them, the B/P ratio of H42 reached balance rapidly in vivo and maintained above 3, while the proportion of H52 in the brain increased gradually and reached 4.41 at 60 min.
All animal experiments were complied with the ARRIVE guidelines and were carried out in accordance with the U.K. Animals Act, 1986 and associated guidelines. The ICR mice were used in plasma–brain distribution assay of compounds. After tail vein injection of a 1.5 mg/kg dose, the concentrations of the compounds in the brain and plasma were measured after 5 min and 60 min of administration, and the brain/plasma (B/P) ratio was calculated. The samples of plasma and brain tissue were prepared as previously reported. An established LC-MS/MS method was used for determining the concentration of representative compounds in plasma and brain tissue.

Data set [3] concerns MDCK cells monolayer model. To be noted: dog, 3 h, 10 µM.
Another data set is described as follows: in vitro. The note with it: dog, MDCK.

T1 sequence (P09874 whole entry): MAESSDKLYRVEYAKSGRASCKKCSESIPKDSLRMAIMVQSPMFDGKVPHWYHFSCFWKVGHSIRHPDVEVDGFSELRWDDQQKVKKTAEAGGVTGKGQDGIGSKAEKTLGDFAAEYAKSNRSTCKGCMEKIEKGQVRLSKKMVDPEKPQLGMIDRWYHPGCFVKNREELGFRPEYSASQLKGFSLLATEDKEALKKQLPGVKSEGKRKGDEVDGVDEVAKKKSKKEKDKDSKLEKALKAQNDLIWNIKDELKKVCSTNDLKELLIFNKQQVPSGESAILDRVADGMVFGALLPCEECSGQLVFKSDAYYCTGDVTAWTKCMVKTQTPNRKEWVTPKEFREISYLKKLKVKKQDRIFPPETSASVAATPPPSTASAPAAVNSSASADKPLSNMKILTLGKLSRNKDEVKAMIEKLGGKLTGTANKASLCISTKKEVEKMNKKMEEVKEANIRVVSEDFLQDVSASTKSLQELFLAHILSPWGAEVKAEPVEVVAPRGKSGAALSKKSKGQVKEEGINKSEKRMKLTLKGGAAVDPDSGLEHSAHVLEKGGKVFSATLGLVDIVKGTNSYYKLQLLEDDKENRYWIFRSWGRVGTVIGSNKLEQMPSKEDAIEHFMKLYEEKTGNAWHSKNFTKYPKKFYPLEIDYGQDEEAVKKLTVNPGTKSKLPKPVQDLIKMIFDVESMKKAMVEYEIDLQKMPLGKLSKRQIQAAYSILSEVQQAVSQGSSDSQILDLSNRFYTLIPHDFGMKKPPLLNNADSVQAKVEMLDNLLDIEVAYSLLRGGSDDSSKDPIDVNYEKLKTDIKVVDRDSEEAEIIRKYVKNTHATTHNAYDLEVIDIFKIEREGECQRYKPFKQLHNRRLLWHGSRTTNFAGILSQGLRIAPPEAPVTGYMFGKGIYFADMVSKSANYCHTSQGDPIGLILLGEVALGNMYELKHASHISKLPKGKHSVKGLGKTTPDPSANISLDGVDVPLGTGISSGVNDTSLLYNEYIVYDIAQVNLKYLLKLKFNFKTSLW
Sequence of PARP-2 (Q9UGN5 whole entry): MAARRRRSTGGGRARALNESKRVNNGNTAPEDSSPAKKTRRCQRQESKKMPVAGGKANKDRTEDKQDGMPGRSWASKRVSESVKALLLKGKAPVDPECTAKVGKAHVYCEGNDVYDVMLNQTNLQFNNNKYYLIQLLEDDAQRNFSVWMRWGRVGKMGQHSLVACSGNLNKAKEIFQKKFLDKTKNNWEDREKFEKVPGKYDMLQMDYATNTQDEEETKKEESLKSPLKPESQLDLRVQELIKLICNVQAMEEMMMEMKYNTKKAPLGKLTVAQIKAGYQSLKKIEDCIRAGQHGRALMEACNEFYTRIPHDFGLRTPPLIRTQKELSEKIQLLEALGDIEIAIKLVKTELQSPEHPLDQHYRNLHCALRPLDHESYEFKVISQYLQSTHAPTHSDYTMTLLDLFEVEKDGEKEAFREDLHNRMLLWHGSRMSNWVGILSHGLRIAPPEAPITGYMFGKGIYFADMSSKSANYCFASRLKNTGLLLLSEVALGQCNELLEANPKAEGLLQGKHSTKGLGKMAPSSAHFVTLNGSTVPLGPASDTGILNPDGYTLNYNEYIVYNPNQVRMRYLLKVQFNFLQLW

As a reminder, the IC50 is the concentration needed to halve the response being measured. Usually inhibition stands for the percentage by which the read-out fell short of the control. A low value points to little suppression. What is called Papp A→B is how fast a substance crosses the layer from the apical side. In the case of `O=C1NCC(c2ccc(-c3ccc(C(F)(F)F)cc3)cc2)Nc2ccccc21` (centres unmarked) [Compound H52, 2-(4′-(Trifluoromethyl)-[1,1′-biphenyl]-4-yl)-1,2,3,4-tetrahydro-5H-benzo[e][1,4]diazepin-5-one], the IC50 stood at 0.0302 µM against PARP-1; 0.0396 µM against PARP-2; 24.6 ± 3.7 µM in data set [1]; 37.9 ± 3.5 µM in the data set on MCF7 cells; 157 ± 15.2 µM with A549 cells. For the same compound, the inhibition at 0.05 µM at PARP-1 (compound concentration 50 nM, three independent tests) is greater than 50%. The “Sensitisation effect in combination with TMZ” value in the data set with glioblastoma (U87) cells is reported as “significant sensitisation effects”. Further, the B/P ratio in data set [2] (60 min after tail vein injection of 1.5 mg/kg, 1.5 mg/kg) worked out at 4.41 ± 0.07 fold. The concentration at 5 min was determined as 1570 ± 264 ng/g in data set [2] (mouse, brain, intravenous, 5 min after tail vein injection of 1.5 mg/kg, read-out: Brain) and 719 ± 39.9 ng/mL in [2] (mouse, plasma, intravenous, 5 min after tail vein injection of 1.5 mg/kg, read-out: Plasma). For the same compound, the concentration at 60 min in data set [2] (mouse, brain, intravenous, 60 min after tail vein injection of 1.5 mg/kg, read-out: Brain) turned out to be 2630 ± 118 ng/g; in data set [2] (mouse, plasma, intravenous, 60 min after tail vein injection of 1.5 mg/kg, read-out: Plasma), 597 ± 25 ng/mL. The Kp at 5 min in [2] (mouse, brain/plasma, intravenous, 5 min after tail vein injection of 1.5 mg/kg, read-out: B/P ratio) stood at 2.18 ± 0.27. The Kp at 60 min in data set [2] (mouse, brain/plasma, intravenous, 60 min after tail vein injection of 1.5 mg/kg, read-out: B/P ratio) came to 4.41. This compound also registered a Capical in [3] of 1.65 ± 0.05 µg/mL. In addition, the Cbasolateral in [3] came out at 0.45 ± 0.07 µg/mL. This compound also showed a Papp A→B at 3 h, 10 µM in “in vitro” of 19.7 ± 0.92 ×10⁻⁶ cm/s.
